The text below walks through data of patent US20060069155A1, “Method for reducing exacerbations associated with COPD” (priority 2000, published 2006).

Molecules are shown by their SMILES. Entries after “also recorded” stand apart in the source; their conditions may differ.

In data set [1] the test system is COPD exacerbations in patients with COPD. The data set can be described thus: Clinical Study B: placebo-controlled, double-blind study of Ariflo 15 mg BID in COPD patients. It is filed as in vivo, human. As to conditions: for Number of Patients Exacerbation-free / Estimated Percentage Exacerbation-Free (Exacerbation-free Survival Rate): 24 weeks, ITT, 15 mg BID; for Estimated Percentage Exacerbation-Free (Exacerbation-free Survival Rate): Kaplan-Meier estimate. From the text: (§1) Acute COPD exacerbations, defined as worsening of COPD symptoms that required changes in treatment including antimicrobial therapy, a short course of oral corticosteroids or other bronchodilator therapy. Exacerbations were categorized to three levels: • Level 1: self-managed by the patient at home by increasing usual medication for COPD. • Level 2: requiring additional treatment prescribed by a family or primary care physician or as a result of a hospital outpatient visit including a visit to the Emergency Room. • Level 3: requiring the patient to be admitted to the hospital for treatment. Clinical trials in COPD patients were carried out to investigate the efficacy of an 15 mg immediate release tablet, BID of Ariflo. […] In each of the studies, patients with COPD entered a 4-week placebo run-in period and were then randomized to receive Ariflo 15 mg twice daily or placebo in a ratio of 2 to 1. Patients were monitored following 1, 2 and 4 weeks of treatment and subsequently at 4-week intervals. Patients were permitted to receive concomitant salbutamol (prn) and/or short acting anticholinergic therapy at a stable dose during these studies. Study B included a 2-week, randomised, double-blind, run-out phase to examine the effects of discontinuation of treatment. Patients who received Ariflo during the initial 24 week period, were randomized (1:1 ratio) to Ariflo 15 mg BID or placebo for the run-out phase; patients who received placebo during the initial 24 weeks, continued on placebo during the run-out phase. Pulmonary function measurements were performed at each visit (with the exception of Week 1). The St. George's Respiratory Questionnaire (SGRQ) was administered at Baseline, and Weeks 12 and 24 (or at the time of withdrawal). Routine compliance, vital sign, and laboratory assessments were performed at each visit. These studies included frequent ECG assessments and extensive monitoring of patients reporting gastrointestinal adverse experiences of potential clinical concern to address concerns about possible effects of SB 207499 on both cardiovascular and gastrointestinal body systems. 12-lead ECG assessments were conducted at screening, prior to dosing at Baseline, and prior to dosing at each visit during the double-blind treatment period. In addition, 12-lead ECGs were performed 3 hours after the administration of drug on the first and last day of dosing. In a subset of patients, 24-hour Holter ECG monitoring was conducted during Run-in and at Weeks 1 and 20. Orthostatic vital signs and faecal occult blood tests were determined for all patients in order to obtain a general incidence of abnormal assessments in this patient population. Orthostatic vital signs were determined at Screening, Baseline and the end of double-blind treatment. Faecal occult blood tests were performed between Screening and Baseline and between 20 weeks and the end of double-blind treatment (24 weeks).

The test system is the same in data set [2]. The data set can be described thus: Clinical Study A: placebo-controlled, double-blind 6-month study of Ariflo 15 mg BID in COPD patients. It is filed as in vivo, human. Conditions: for Number of Patients Exacerbation-free / Estimated Percentage Exacerbation-Free (Exacerbation-free Survival Rate): 24 weeks, ITT, 15 mg BID; for Estimated Percentage Exacerbation-Free (Exacerbation-free Survival Rate): Kaplan-Meier estimate.
Source text: as §1, with “studies.” for “studies. Study B included a 2-week, randomised, double-blind, run-out phase to examine the effects of discontinuation of treatment. Patients who received Ariflo during the initial 24 week period, were randomized (1:1 ratio) to Ariflo 15 mg BID or placebo for the run-out phase; patients who received placebo during the initial 24 weeks, continued on placebo during the run-out phase.”

Data set [3] has the same test system. The data set can be described thus: Clinical Study C: placebo-controlled, double-blind 6-month study of Ariflo 15 mg BID in COPD patients. In kind it is in vivo, human. As to conditions: for Number of Patients Exacerbation-free / Estimated Percentage Exacerbation-Free (Exacerbation-free Survival Rate): 24 weeks, ITT, 15 mg BID; for Estimated Percentage Exacerbation-Free (Exacerbation-free Survival Rate): Kaplan-Meier estimate.
Source text: as §1, with “studies.” for “studies. Study B included a 2-week, randomised, double-blind, run-out phase to examine the effects of discontinuation of treatment. Patients who received Ariflo during the initial 24 week period, were randomized (1:1 ratio) to Ariflo 15 mg BID or placebo for the run-out phase; patients who received placebo during the initial 24 weeks, continued on placebo during the run-out phase.”

The conditions of data set [4]: targeted for the treatment of multi-infarct dementia; 'may include'; cited from earlier work.
For data set [5] the following is noted: developed as an antidepressant; cited from earlier work.
The mark [6] stands for this setting: 15 mg immediate release tablet BID.

As to `COc1ccc([C@]2(C#N)CC[C@@H](C(=O)O)CC2)cc1OC1CCCC1` [SB207499, cis-4-cyano-4-[3-(cyclopentyloxy)-4-methoxyphenyl]cyclohexane-1-carboxylic acid], the “estimated percentages of patients exacerbation-free compared to placebo” value in data set [1] (15 mg IR tablet BID, P=0.004) is “significantly greater”; in data set [2] (15 mg IR tablet BID, P=0.008) it was “significantly greater”. In addition, the “incidence of all categories of exacerbations and of more severe exacerbations (Levels 2 and 3) versus placebo” value in data set [1] (setting [6]) and in data set [2] (setting [6]) was “lower incidence” in each case. Moreover, the “Number of Patients Exacerbation-free” value in data set [1] (All Exacerbations, of 469 patients) was 318; in data set [1] (Level 2 and 3 Exacerbations), 367; in data set [2] (All Exacerbations, of 431 patients) it was 336; in data set [2] (Level 2 and 3 Exacerbations), 364; in data set [3] (All Exacerbations, of 474 patients), 299; in data set [3] (Level 2 and 3 Exacerbations), 354. The “Estimated Percentage Exacerbation-Free (Exacerbation-free Survival Rate)” value in data set [1] (All Exacerbations, placebo 51.1) is 63.9%; in data set [1] (Level 2 and 3 Exacerbations, placebo 64.3), 75.5%; in data set [2] (All Exacerbations, placebo 62.4), 74.0%; in data set [2] (Level 2 and 3 Exacerbations, placebo 69.7) it was 81.7%; in data set [3] (All Exacerbations, placebo 56.0) it was 58.3%; in data set [3] (Level 2 and 3 Exacerbations, placebo 71.0), 70.9%. Further, the “reduction of the risk of an exacerbation requiring treatment by a physician or hospitalization (Levels 2 and 3)” value in data set [1] (over 26 weeks, P=0.004) came out at 32%. The “reduction of the risk of having an exacerbation relative to placebo” value in data set [1] (over 26 weeks, P=0.005) is 30%; in data set [2] (15 mg immediate release tablet BID, Kaplan-Meier estimates, P=0.002), 39%. In data set [2] (15 mg immediate release tablet BID, Kaplan-Meier estimates, P=0.001), the “reduction of the risk of an exacerbation requiring treatment by a physician or hospitalization” value was 45%. In data set [3] (15 mg BID over 6 months), the affect on exacerbations entry is “marginal”. The “efficacy in treating COPD” value in data set [3] (15 mg BID over 6 months) is listed as “equivocal”.

Consider `CCCCn1c(=O)c2c(ncn2CC(C)=O)n(CCCC)c1=O` [denbufylline], for which the side effects result in data set [4] was “pyrosis, nausea and emesis”.

Take `COc1ccc(C2CNC(=O)C2)cc1OC1CCCC1` (stereo not drawn) [rolipram]: the “side effects in clinical studies” value in data set [5] is “psychotropic activity; also recorded: gastrointestinal effects, e.g., pyrosis, nausea and emesis”.
